Assay results as given in patent publication US11717635B2, “Argon combined with thrombectomy in the event of ischaemic stroke” (L'Air Liquide, Société Anonyme pour l'Etude et …, priority 2019, dated 2023).

System: transient focal cerebral ischaemia (occlusion of the middle cerebral artery)
Experiment: Transient focal cerebral ischaemia (microcoil occlusion of the right MCA, 90 min, then reperfusion mimicking mechanical thrombectomy) with MRI and behavioural follow-up
Format: in vivo, rhesus macaques
Description: The primates used in the study are rhesus macaques, in which it has been possible to obtain a stable and reproducible model of reversible ischaemia mimicking an ischaemic stroke and its reperfusion by mechanical thrombectomy, as explained below. After approval of the project by the ethics committee for animal experimentation, 6 rhesus macaques were randomized in 2 groups of 3 animals per group, namely: • a group treated with argon or “argon group” inhaling, for 90 min in total, a binary gas mixture formed of 60% argon and 40% oxygen (vol. %), the inhalation of the gas beginning 30 min after the start of the ischaemia and extending during and after the thrombectomy procedure (with or without thrombolysis); • a “control group” inhaling a gas mixture formed of 60% nitrogen and 40% oxygen (vol. %). These groups are subjected to a model of transient focal cerebral ischaemia without craniectomy consisting of an occlusion under anaesthesia of the middle cerebral artery (MCA) by deploying a rigid microspring, called a “microcoil”, until the arterial blood flow stops, in the M2 segment of the right MCA. After 90 min of ischaemia, which is the usual average time between the first signs of an ischaemic stroke and the cerebral reperfusion, the “microcoil” was removed and the revascularization confirmed by arteriography. This procedure mimics a blood clot and its removal by mechanical thrombectomy. All the animals are monitored by high-resolution MRI (Prisma 3 Tesla, Siemens) several days before and directly after the ischaemia (3[…], TOF) in order to quantify the cerebral volume made ischaemic (i.e. restriction of the apparent diffusion coefficient) and the cerebral oedema ([…]). Moreover, the functional recovery was monitored in the acute phase in 1 control animal and over the long-term in two animals of the argon group, that is to say over the course of 3 months post-ischaemia. The evaluations were carried out in terms of the clinical and functional neurological recovery with behavioural tests evaluating their fine sensory-motor performances.

[Ar] [argon]
lesion volume (argon group (60% argon/40% oxygen, 90 min), control group about 5 ml): about 1 ml
performances in the behavioural tests (fine sensory-motor) post-ischaemia compared with baseline (argon group animals monitored 3 months post-ischaemia): not significantly impaired
blood-brain barrier state on MRI images (argon group, rupture observed in the control group): preserved
decrease in the volume of cerebral oedema compared to the control group (inhaled 60% argon/40% oxygen for 90 min, begun 30 min after start of ischaemia, MRI T2-FLAIR, P<0.05 vs control): 85 % reduction
decrease in the cerebral volume infarcted compared to the control group (inhaled 60% argon/40% oxygen for 90 min, begun 30 min after start of ischaemia, MRI, P<0.05 vs 60% nitrogen/40% oxygen control): 83 % reduction
clinical and functional neurological recovery (two animals of the argon group monitored 3 months post-ischaemia, deficit = left leg paresis): rapid recovery with only a minor and transient neurological deficit
